Laboratory results as given in article PMC5218480 (PLoS ONE, 2017).

Tested on: MV-4-11 cells
Assay: Gene expression microarray analysis (Affymetrix PrimeView) and GSEA
Format: cell-based, human
Design: RFU PODN (11730768_x_at) / Fold change /veh PODN (11730768_x_at) / RFU LINC00158 (11744669_a_at) / Fold change /veh LINC00158 (11744669_a_at) / RFU DUSP10 (11751237_a_at) / Fold change /veh DUSP10 (11751237_a_at) / RFU ID3 (11757404_x_at) / Fold change /veh ID3 (11757404_x_at) / RFU PLEKHG5 (11737974_s_at) / Fold change /veh PLEKHG5 (11737974_s_at) / RFU LRRC4B (11730491_at) / Fold change /veh LRRC4B (11730491_at) / RFU GIMAP4 (11747438_a_at) / Fold change /veh GIMAP4 (11747438_a_at) / RFU KRT8 (11758183_x_at) / Fold change /veh KRT8 (11758183_x_at) / RFU CNN1 (11734310_a_at) / Fold change /veh CNN1 (11734310_a_at) / RFU VPS37D (11726825_at) / Fold change /veh VPS37D (11726825_at) / RFU C10orf10 (11716522_x_at) / Fold change /veh C10orf10 (11716522_x_at) / RFU KIR2DL2 /// KIR2DL4 /// KIR2DL5A /// KIR2DL5B /// KIR2DS1 /// KIR2DS2 /// KIR2DS3 /// KIR2DS4 /// KIR3DL3 /// KIR3DL3 /// KIR3DS1 (11738374_at) / Fold change /veh KIR2DL2 /// KIR2DL4 /// KIR2DL5A /// KIR2DL5B /// KIR2DS1 /// KIR2DS2 /// KIR2DS3 /// KIR2DS4 /// KIR3DL3 /// KIR3DL3 /// KIR3DS1 (11738374_at) / RFU C1QL1 (11718748_at) / Fold change /veh C1QL1 (11718748_at) / RFU TMPRSS4 (11747572_a_at) / Fold change /veh TMPRSS4 (11747572_a_at) / RFU HAMP (11756126_x_at) / Fold change /veh HAMP (11756126_x_at) / RFU RNFT2 (11725882_a_at) / Fold change /veh RNFT2 (11725882_a_at) / RFU NR4A2 (11747474_a_at) / Fold change /veh NR4A2 (11747474_a_at) / RFU ABCC12 (11746883_a_at) / Fold change /veh ABCC12 (11746883_a_at) / RFU TMEM136 (11760407_x_at) / Fold change /veh TMEM136 (11760407_x_at) / RFU CLDN22 /// WWC2 (11732394_at) / Fold change /veh CLDN22 /// WWC2 (11732394_at) / RFU HLA-DPB1 (11760878_x_at) / Fold change /veh HLA-DPB1 (11760878_x_at) / RFU SPINT1 (11716480_a_at) / Fold change /veh SPINT1 (11716480_a_at) / RFU GAP43 (11754022_s_at) / Fold change /veh GAP43 (11754022_s_at) / RFU A4GNT (11735810_at) / Fold change /veh A4GNT (11735810_at) / RFU PRB3 (11715151_x_at) / Fold change /veh PRB3 (11715151_x_at) / RFU TUBB4B (11761932_at) / Fold change /veh TUBB4B (11761932_at) / RFU CAPN14 (11732068_a_at) / Fold change /veh CAPN14 (11732068_a_at) / RFU TMCC2 (11721928_a_at) / Fold change /veh TMCC2 (11721928_a_at) / RFU IRGQ (11745062_a_at) / Fold change /veh IRGQ (11745062_a_at) / RFU FAM174B (11720279_a_at) / Fold change /veh FAM174B (11720279_a_at) / RFU TMPRSS4 (11748680_a_at) / Fold change /veh TMPRSS4 (11748680_a_at) / RFU FAM212B (11763350_a_at) / Fold change /veh FAM212B (11763350_a_at) / RFU PLEKHG5 (11743358_a_at) / Fold change /veh PLEKHG5 (11743358_a_at) / RFU ZSCAN30 (11745921_a_at) / Fold change /veh ZSCAN30 (11745921_a_at) / RFU CMKLR1 (11741424_a_at) / Fold change /veh CMKLR1 (11741424_a_at) / RFU LOC101060620 /// MAPK8IP1 (11723275_at) / Fold change /veh LOC101060620 /// MAPK8IP1 (11723275_at) / RFU SPTSSB (11747773_x_at) / Fold change /veh SPTSSB (11747773_x_at) / RFU PRSS12 (11739890_at) / Fold change /veh PRSS12 (11739890_at) / RFU BIN1 (11741810_x_at) / Fold change /veh BIN1 (11741810_x_at) / RFU WNT11 (11732464_a_at) / Fold change /veh WNT11 (11732464_a_at) / RFU C10orf10 (11716521_a_at) / Fold change /veh C10orf10 (11716521_a_at) / RFU C5orf56 (11738089_at) / Fold change /veh C5orf56 (11738089_at) / RFU CYB561 (11721691_x_at) / Fold change /veh CYB561 (11721691_x_at) / RFU ANKRD19P (11752326_a_at) / Fold change /veh ANKRD19P (11752326_a_at) / RFU OR2T12 /// OR2T33 /// OR2T8 (11738714_s_at) / Fold change /veh OR2T12 /// OR2T33 /// OR2T8 (11738714_s_at) / RFU VCAN (11748164_a_at) / Fold change /veh VCAN (11748164_a_at) / RFU JSRP1 (11732532_at) / Fold change /veh JSRP1 (11732532_at) / RFU KRTAP10-11 (11738290_x_at) / Fold change /veh KRTAP10-11 (11738290_x_at) / RFU MYO3A (11730013_a_at) / Fold change /veh MYO3A (11730013_a_at) / RFU EBF3 (11725865_a_at) / Fold change /veh EBF3 (11725865_a_at) / RFU CAMK2N1 (11719241_x_at) / Fold change /veh CAMK2N1 (11719241_x_at) / RFU C5orf56 (11738088_a_at) / Fold change /veh C5orf56 (11738088_a_at) / RFU OLFML3 (11715873_a_at) / Fold change /veh OLFML3 (11715873_a_at) / RFU LOC100653217 /// NTM (11731650_a_at) / Fold change /veh LOC100653217 /// NTM (11731650_a_at) / RFU MAPK11 (11762145_a_at) / Fold change /veh MAPK11 (11762145_a_at) / RFU FIZ1 (11724087_x_at) / Fold change /veh FIZ1 (11724087_x_at) / RFU OASL (11726364_x_at) / Fold change /veh OASL (11726364_x_at) / RFU SOX15 (11748057_x_at) / Fold change /veh SOX15 (11748057_x_at) / RFU CD79A (11719716_a_at) / Fold change /veh CD79A (11719716_a_at) / RFU HIST1H1D (11736915_at) / Fold change /veh HIST1H1D (11736915_at) / RFU CASKIN2 (11723855_a_at) / Fold change /veh CASKIN2 (11723855_a_at) / RFU LOC730098 (11760151_x_at) / Fold change /veh LOC730098 (11760151_x_at) / RFU OR4N2 (11742367_at) / Fold change /veh OR4N2 (11742367_at) / RFU PRRT2 (11749266_a_at) / Fold change /veh PRRT2 (11749266_a_at) / RFU SNX32 (11753110_a_at) / Fold change /veh SNX32 (11753110_a_at) / RFU CDHR5 (11726645_a_at) / Fold change /veh CDHR5 (11726645_a_at) / RFU RCAN1 (11760418_a_at) / Fold change /veh RCAN1 (11760418_a_at) / RFU FAM167A (11723789_a_at) / Fold change /veh FAM167A (11723789_a_at) / RFU FAM26E (11764081_at) / Fold change /veh FAM26E (11764081_at) / RFU ISYNA1 (11749810_s_at) / Fold change /veh ISYNA1 (11749810_s_at) / RFU ACY1 (11761880_at) / Fold change /veh ACY1 (11761880_at) / RFU 11764098_at / Fold change /veh 11764098_at / RFU SAMD14 (11745864_x_at) / Fold change /veh SAMD14 (11745864_x_at) / RFU NPB (11741838_a_at) / Fold change /veh NPB (11741838_a_at) / RFU TMPRSS6 (11731388_a_at) / Fold change /veh TMPRSS6 (11731388_a_at) / RFU KRTAP10-2 (11738614_at) / Fold change /veh KRTAP10-2 (11738614_at) / RFU ARHGAP8 /// PRR5-ARHGAP8 (11727945_x_at) / Fold change /veh ARHGAP8 /// PRR5-ARHGAP8 (11727945_x_at) / RFU KRTAP5-7 /// NADSYN1 (11734609_at) / Fold change /veh KRTAP5-7 /// NADSYN1 (11734609_at) / RFU RASL12 (11751679_a_at) / Fold change /veh RASL12 (11751679_a_at) / RFU CDKN2B (11736163_a_at) / Fold change /veh CDKN2B (11736163_a_at) / RFU PRF1 (11729649_at) / Fold change /veh PRF1 (11729649_at) / RFU, ZNF638 /// ZNF638-IT1 / Fold change vs veh, ZNF638 /// ZNF638-IT1 / RFU, PANK3 / Fold change vs veh, PANK3 / RFU, SH3YL1 / Fold change vs veh, SH3YL1 / RFU, ZEB2 / Fold change vs veh, ZEB2 / RFU, NRIP1 / Fold change vs veh, NRIP1 / RFU, PTTG1IP / Fold change vs veh, PTTG1IP / RFU, CAPN2 / Fold change vs veh, CAPN2 / RFU, MED14 / Fold change vs veh, MED14 / RFU, SNORA58 / Fold change vs veh, SNORA58 / RFU, C1orf63 / Fold change vs veh, C1orf63 / RFU, LRRFIP1 / Fold change vs veh, LRRFIP1 / RFU, NDUFAF7 / Fold change vs veh, NDUFAF7 / RFU, SLC12A2 / Fold change vs veh, SLC12A2 / RFU, IBTK / Fold change vs veh, IBTK / RFU, ESF1 / Fold change vs veh, ESF1 / Fold change vs veh, TMEM50B / RFU, TAOK1 / Fold change vs veh, TAOK1 / RFU, ACBD3 / Fold change vs veh, ACBD3 / RFU, TMA16 / Fold change vs veh, TMA16 / RFU, RWDD3 / Fold change vs veh, RWDD3 / RFU, BCAT1 / Fold change vs veh, BCAT1 / RFU, EDEM3 / Fold change vs veh, EDEM3 / RFU, TMEM33 / Fold change vs veh, TMEM33 / RFU, WDR75 / Fold change vs veh, WDR75 / RFU, AHCTF1 / Fold change vs veh, AHCTF1 / RFU, TFRC / Fold change vs veh, TFRC / RFU, ZDHHC17 / Fold change vs veh, ZDHHC17 / RFU, NOM1 / Fold change vs veh, NOM1 / RFU, ARL8B / Fold change vs veh, ARL8B / RFU, ZBTB11 / Fold change vs veh, ZBTB11 / RFU, TAMM41 / Fold change vs veh, TAMM41 / RFU, KIAA1704 /// LOC100996395 / Fold change vs veh, KIAA1704 /// LOC100996395 / RFU, ING1 / Fold change vs veh, ING1 / RFU, TRMT61B / Fold change vs veh, TRMT61B / RFU, FUBP3 / Fold change vs veh, FUBP3 / RFU, TP53 / Fold change vs veh, TP53 / RFU, TNKS2 / Fold change vs veh, TNKS2 / RFU, ZFP14 / Fold change vs veh, ZFP14 / RFU, ACTR2 / Fold change vs veh, ACTR2 / RFU, PPP3R1 / Fold change vs veh, PPP3R1 / RFU, PIK3R1 / Fold change vs veh, PIK3R1 / RFU, HNRNPA1 / Fold change vs veh, HNRNPA1 / RFU, RNF170 / Fold change vs veh, RNF170 / RFU, ZNF28 / Fold change vs veh, ZNF28 / RFU, RNGTT / Fold change vs veh, RNGTT / RFU, OGT / Fold change vs veh, OGT / RFU, BRD1 / Fold change vs veh, BRD1 / RFU, MARS / Fold change vs veh, MARS / RFU, ZNF655 / Fold change vs veh, ZNF655 / RFU, FAHD1 / Fold change vs veh, FAHD1 / RFU, BDP1 / Fold change vs veh, BDP1 / RFU, LRRCC1 / Fold change vs veh, LRRCC1 / RFU, ARID1A / Fold change vs veh, ARID1A / RFU, ZNF146 / Fold change vs veh, ZNF146 / RFU, ZNF330 / Fold change vs veh, ZNF330 / RFU, GPN3 / Fold change vs veh, GPN3 / RFU, C9orf123 / Fold change vs veh, C9orf123 / RFU, N4BP2L2 / Fold change vs veh, N4BP2L2 / RFU, ARFIP1 / Fold change vs veh, ARFIP1 / RFU, FAM179B / Fold change vs veh, FAM179B / RFU, BCL10 / Fold change vs veh, BCL10 / RFU, UHRF1BP1L / Fold change vs veh, UHRF1BP1L / RFU, BET1 / Fold change vs veh, BET1 / RFU, CNOT2 / Fold change vs veh, CNOT2 / RFU, ZNF268 / Fold change vs veh, ZNF268 / Fold change vs veh, ZNF507 / RFU, DGCR2 / Fold change vs veh, DGCR2 / RFU, WDSUB1 / Fold change vs veh, WDSUB1 / Fold change vs veh, HSP90B1 /// MIR3652 / RFU, ADSS / Fold change vs veh, ADSS / RFU, GK / Fold change vs veh, GK / RFU, ZNF148 / Fold change vs veh, ZNF148 / RFU, TAF9 / Fold change vs veh, TAF9 / RFU, SLC1A5 / Fold change vs veh, SLC1A5 / RFU, SLMO2 / Fold change vs veh, SLMO2 / RFU, ABCC4 / Fold change vs veh, ABCC4 / RFU, LOC101060439 /// RAP1B / Fold change vs veh, LOC101060439 /// RAP1B / RFU, RFX7 / Fold change vs veh, RFX7 / RFU, GTPBP10 / Fold change vs veh, GTPBP10 / RFU, CNEP1R1 / Fold change vs veh, CNEP1R1 / RFU, BIVM-ERCC5 /// ERCC5 / Fold change vs veh, BIVM-ERCC5 /// ERCC5 / RFU, ILF3 / Fold change vs veh, ILF3 / RFU 11762660_at / Fold change /veh 11762660_at / RFU VCAN (11757783_s_at) / Fold change /veh VCAN (11757783_s_at) / RFU DDX43 (11728927_at) / Fold change /veh DDX43 (11728927_at) / RFU KRT8 (11758188_x_at) / Fold change /veh KRT8 (11758188_x_at) / RFU NKD1 (11759106_at) / Fold change /veh NKD1 (11759106_at) / RFU SRD5A1 (11742802_a_at) / Fold change /veh SRD5A1 (11742802_a_at) / RFU TPSAB1 /// TPSB2 (11721975_s_at) / Fold change /veh TPSAB1 /// TPSB2 (11721975_s_at) / RFU GSTM3 (11746129_a_at) / Fold change /veh GSTM3 (11746129_a_at) / RFU IL23R (11737362_x_at) / Fold change /veh IL23R (11737362_x_at) / RFU TMEM51 (11727254_a_at) / Fold change /veh TMEM51 (11727254_a_at) / RFU PIWIL2 (11732686_x_at) / Fold change /veh PIWIL2 (11732686_x_at) / RFU ORM1 (11744905_x_at) / Fold change /veh ORM1 (11744905_x_at) / RFU CCDC152 (11743942_at) / Fold change /veh CCDC152 (11743942_at) / RFU ECM1 (11717891_a_at) / Fold change /veh ECM1 (11717891_a_at) / RFU IL23R (11748794_a_at) / Fold change /veh IL23R (11748794_a_at) / RFU TNFAIP8L3 (11732012_x_at) / Fold change /veh TNFAIP8L3 (11732012_x_at) / RFU MBOAT4 (11741988_at) / Fold change /veh MBOAT4 (11741988_at) / RFU 11764193_at / Fold change /veh 11764193_at / RFU TMEM53 (11763286_at) / Fold change /veh TMEM53 (11763286_at) / RFU MAGEB2 (11727129_at) / Fold change /veh MAGEB2 (11727129_at) / RFU TMEM200A (11744735_a_at) / Fold change /veh TMEM200A (11744735_a_at) / RFU CCDC152 (11751479_a_at) / Fold change /veh CCDC152 (11751479_a_at) / RFU FAM211A (11726209_a_at) / Fold change /veh FAM211A (11726209_a_at) / RFU RGS16 (11746705_a_at) / Fold change /veh RGS16 (11746705_a_at) / RFU VCAN (11755009_s_at) / Fold change /veh VCAN (11755009_s_at) / RFU RHOB (11743442_s_at) / Fold change /veh RHOB (11743442_s_at) / RFU RGS16 (11720943_a_at) / Fold change /veh RGS16 (11720943_a_at) / RFU RGS16 (11720944_at) / Fold change /veh RGS16 (11720944_at) / RFU, VPS4B / Fold change vs veh, VPS4B / RFU, CREB1 / Fold change vs veh, CREB1 / RFU, DNAJC13 / Fold change vs veh, DNAJC13 / RFU, GNAQ / Fold change vs veh, GNAQ / RFU, CDK5R1 / Fold change vs veh, CDK5R1 / RFU, ZRANB3 / Fold change vs veh, ZRANB3 / RFU, CUL4A / Fold change vs veh, CUL4A / RFU, CCNY / Fold change vs veh, CCNY / RFU, UFL1 / Fold change vs veh, UFL1 / RFU, COG3 / Fold change vs veh, COG3 / RFU, DIAPH2 / Fold change vs veh, DIAPH2 / RFU, SKA2 / Fold change vs veh, SKA2 / RFU, AFF3 / Fold change vs veh, AFF3 / RFU, LMF1 / Fold change vs veh, LMF1 / RFU, IPO11 / Fold change vs veh, IPO11 / RFU, DFFB / Fold change vs veh, DFFB / RFU, FOXP1 / Fold change vs veh, FOXP1 / RFU, CARD8 / Fold change vs veh, CARD8 / RFU, STRN3 / Fold change vs veh, STRN3 / RFU, ADK / Fold change vs veh, ADK / RFU, RASSF2 / Fold change vs veh, RASSF2 / RFU, WIPF1 / Fold change vs veh, WIPF1 / RFU, LARP1B / Fold change vs veh, LARP1B / RFU, RASA1 / Fold change vs veh, RASA1 / RFU, RB1 / Fold change vs veh, RB1 / RFU, PPFIA1 / Fold change vs veh, PPFIA1 / RFU, MAT2A / Fold change vs veh, MAT2A / RFU, CCT5 / Fold change vs veh, CCT5 / RFU, WDR92 / Fold change vs veh, WDR92 / RFU, CUX1 / Fold change vs veh, CUX1 / RFU, TTC7A / Fold change vs veh, TTC7A / RFU, TMEM135 / Fold change vs veh, TMEM135 / RFU, DEPTOR / Fold change vs veh, DEPTOR / RFU, CPM / Fold change vs veh, CPM / RFU, DNAJB6 / Fold change vs veh, DNAJB6 / RFU, CACNA2D3 / Fold change vs veh, CACNA2D3 / RFU, DTX4 / Fold change vs veh, DTX4 / RFU, TFCP2 / Fold change vs veh, TFCP2 / RFU, GMCL1 /// GMCL1P1 / Fold change vs veh, GMCL1 /// GMCL1P1 / RFU, AEBP2 / Fold change vs veh, AEBP2 / RFU, SNHG1 /// SNORD22 /// SNORD25 /// SNORD26 /// SNORD27 /// SNORD28 /// SNORD29 /// SNORD31 / Fold change vs veh, SNHG1 /// SNORD22 /// SNORD25 /// SNORD26 /// SNORD27 /// SNORD28 /// SNORD29 /// SNORD31 / Fold change (Aza/veh), C12orf56 (ProbeSet 11735607_a_at) / Fold change (ACY-1035/veh), C12orf56 (ProbeSet 11735607_a_at) / Fold change (Aza/veh), FGFR1OP (ProbeSet 11751329_s_at) / Fold change (ACY-1035/veh), FGFR1OP (ProbeSet 11751329_s_at) / Fold change (Aza/veh), VPS36 (ProbeSet 11739960_a_at) / Fold change (ACY-1035/veh), VPS36 (ProbeSet 11739960_a_at) / RFU SYPL1 (11715823_x_at) / Fold change /veh SYPL1 (11715823_x_at) / RFU IGFBP7 (11715501_s_at) / Fold change /veh IGFBP7 (11715501_s_at) / RFU REEP3 (11722064_at) / Fold change /veh REEP3 (11722064_at) / RFU IGLL1 (11728026_x_at) / Fold change /veh IGLL1 (11728026_x_at): dose or concentration left out as unconfirmed
Settings: MV-4-11 cells, 48 hours

Nc1ncn([C@@H]2O[C@H](CO)[C@@H](O)[C@H]2O)c(=O)n1 [azacitidine]
RFU IGFBP7 (11715501_s_at): 202.56 RFU
